Reference: article PMC6078311, “Localization and functional characterization of the pathogenesis-related proteins Rbe1p and Rbt4p in Candida albicans” (PLoS ONE, 2018)

Assays:
Rbt4p = target: T1, Rbt4p (Candida albicans, UniProt Q5AB48); experiment: in vitro [3H]-cholesterol radioligand saturation binding with purified protein; competition with unlabeled cholesterol
T1 construct: gene RBT4; codon-optimized His-tagged Rbt4p expressed in Escherichia coli

Rbe1p = target: T2, Rbe1p (Candida albicans, UniProt Q59ZX3); experiment: as above
T2 construct: gene RBE1; codon-optimized His-tagged Rbe1p expressed in Escherichia coli
T2 sequence (Q59ZX3 20-271): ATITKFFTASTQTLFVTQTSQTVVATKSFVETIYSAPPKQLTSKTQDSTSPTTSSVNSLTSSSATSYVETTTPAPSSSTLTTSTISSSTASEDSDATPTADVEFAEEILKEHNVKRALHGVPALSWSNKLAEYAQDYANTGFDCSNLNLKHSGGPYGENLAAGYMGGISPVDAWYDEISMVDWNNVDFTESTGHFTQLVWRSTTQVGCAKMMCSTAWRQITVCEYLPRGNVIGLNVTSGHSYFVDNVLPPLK

T1 sequence (Q5AB48 20-358): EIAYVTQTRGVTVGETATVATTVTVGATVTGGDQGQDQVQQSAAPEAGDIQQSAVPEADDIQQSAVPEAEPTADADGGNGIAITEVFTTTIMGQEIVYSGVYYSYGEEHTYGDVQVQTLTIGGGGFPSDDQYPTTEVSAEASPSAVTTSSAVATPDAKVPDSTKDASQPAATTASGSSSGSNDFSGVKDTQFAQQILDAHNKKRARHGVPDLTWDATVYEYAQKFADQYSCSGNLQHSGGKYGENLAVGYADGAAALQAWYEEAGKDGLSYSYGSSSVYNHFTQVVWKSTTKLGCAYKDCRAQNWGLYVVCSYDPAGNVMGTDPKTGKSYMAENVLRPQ

CC(C)CCC[C@@H](C)[C@H]1CC[C@H]2[C@@H]3CC=C4C[C@@H](O)CC[C@]4(C)[C@H]3CC[C@]12C [cholesterol]
Kd (Rbt4p): ~3.3 µM
Kd (Rbe1p): ~5.78 µM
